Source: patent publication US11834663B2, “Fibrotic treatment” (Monash University, priority 2015, dated 2023)

Test system: human cardiac fibroblasts (HCFs)
Test: Human cardiac fibroblasts stimulated with Ang II: α-SMA and collagen expression
Type: cell-based
Conditions: HCFs + Ang II 0.1 μM, HFI-419 0.01 to 1 μM, approx. 72 hours; FIG. 26
Description: Commercially available human cardiac fibroblasts (HCF, Catalog #6300, Sciencell, CA, USA) were grown in T75 flask maintained in an incubator at 37° C., 5% CO2. Complete media composition: M199 media (#11150-059, life technologies)+10% FBS (#10437-028, life technologies)+1% Fibroblast Growth Supplement-2 (#2382, ScienCell)+1% penicillin/streptomycin 10,000 U/ml antibiotics (#15140-122, Life Technologies). Fresh complete media was replenished every alternate day until culture reached 70% confluence in which media is replenished daily until it reached approximately 90% confluence in order to passage/subculture. To subculture, media was discarded and culture was rinsed with warm PBS. After which, culture was detached using warm 0.05% Trypsin+EDTA with gentle swirling of flask to make sure cells were not adherent to surface of flask. Trypsin was then neutralized with complete media and suspension was then transferred into a new falcon tube and centrifuged at 1000 rpm for 5 minutes. […]
Once treatment is complete, cells were washed with warm PBS and detached using Accutase (A6964, Sigma), with 5 minutes incubation at 37° C. […] The supernatant (˜20 ul) was transferred to a new tube and protein concentrations were measured using Biorad Lowry protein assay. Protein quantification of respective markers were performed via standard western blot analysis. […]

## CCOC(=O)C1=C(NC(C)=O)Oc2cc(O)ccc2C1c1cccnc1 (centres unmarked) [HFI-419]
  collagen production in human cardiac fibroblasts: dose-dependently decreased
  myofibroblast expression (α-SMA) in human cardiac fibroblasts: dose-dependently decreased
